Measurements published in patent US20100105661A1, “CONDENSED PYRIDINE COMPOUND” (Astellas Pharma Inc., priority 2007, published 2010).

What follows are molecules tested against T1, human JAK3 kinase domain (Homo sapiens, UniProt P52333) (assay: JAK3 inhibition test). Conditions: 20 μM ATP in substrate solution, Biotin-Lyn-Substrate-2, one hour at ambient temperature; compounds of the Examples.
T1 construct: attached to the N-terminal of the 796-1124 (C-terminal) fragment of the human JAK3 protein; His-tag (N); purchased Carna Biosciences, Inc. (Kobe, Japan); host or cells: baculovirus expression system
Type: biochemical
Method: The JAK3 inhibition test was performed as described below
Purified human JAK3 kinase domain was purchased from Carna Biosciences, Inc. (Kobe, Japan). This was afforded as described below.
As an assay buffer, 15 mM Tris-HCl pH 7.5 containing 0.01% Tween 20 and 2 mM DTT (dithiothreitol) was used.
After incubation at ambient temperature for one hour, the plate was washed with a cleaning buffer (50 mM Tris-HCl pH 7.5, 150 mM NaCl, 0.02% Tween 20), and a blocking buffer (a cleaning buffer containing 0.1% bovine serum albumin) was added to the plate. After incubation at ambient temperature for 30 minutes, the blocking buffer was removed, and an HRP-PY-20 solution (afforded by diluting HRP-PY-20 solution with the blocking buffer 500 times) was added. After incubation at ambient temperature for 30 minutes, the plate was washed four times, and a TMB substrate solution (Sigma) was added to the plate. After incubation at ambient temperature for 4 minutes, 1M sulfuric acid was added to stop the reaction. Enzyme activity was measured as absorbance at 450 nm.

T1 sequence (P52333 796-1124): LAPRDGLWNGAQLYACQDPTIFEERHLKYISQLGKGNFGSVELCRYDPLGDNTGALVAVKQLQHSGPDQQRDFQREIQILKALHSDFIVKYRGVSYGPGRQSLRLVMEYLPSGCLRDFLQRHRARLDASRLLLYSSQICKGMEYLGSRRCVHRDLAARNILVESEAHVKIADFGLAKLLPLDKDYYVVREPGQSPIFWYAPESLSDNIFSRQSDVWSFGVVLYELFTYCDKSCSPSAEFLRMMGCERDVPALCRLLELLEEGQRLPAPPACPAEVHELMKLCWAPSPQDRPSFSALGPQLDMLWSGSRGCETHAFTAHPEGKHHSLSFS

Row | SMILES | IC50
1 | Nc1nn(C2CCCCCC2)c2c1cnc1[nH]ccc12 [Example 12, 1-cycloheptyl-1,6-dihydropyrazolo-[3,4-d]pyrrolo[2,3-b]pyridine-3-amine] | 10 nM
2 | C[C@@H]1CN(c2ccc(C#N)cn2)CC[C@@H]1Nc1c(C(N)=O)cnc2[nH]ccc12 (racemic) [Example 65] | 0.78 nM
3 | CC[C@@H]1CCCC[C@@H]1n1nc(N)c2cnc3[nH]ccc3c21 [Example 129] | 3.8 nM
4 | NC(=O)c1cnc2[nH]ccc2c1N[C@@H]1CCN(c2ccc(C(F)(F)F)nn2)C[C@@H]1F (racemic) [Example 91] | 3.2 nM
5 | C[C@@H]1CCN(C(=O)N2CCC=N2)C[C@@H]1n1c(=O)[nH]c2cnc3[nH]ccc3c21 (racemic) [Example 110] | 10 nM
6 | N#Cc1ccc(N2CCC(Nc3c(C(N)=O)cnc4[nH]ccc34)CC2)cc1 [Example 58] | 3.4 nM
7 | CNC(=O)C(=O)Nc1nn([C@H]2CN(c3ccc([N+](=O)[O-])cn3)CC[C@H]2C)c2c1cnc1[nH]ccc12 (racemic) [Example 77] | 4.8 nM

More lines, now with the values ahead:

Row | IC50 | SMILES
8 | 2.2 nM | C[C@H]1CN(c2ccc(C#N)cn2)CC[C@H]1Nc1c(C(N)=O)cnc2[nH]cnc12 (racemic) [Example 49]
9 | 2.7 nM | N#Cc1ccc(N2CC[C@@H](Nc3c(C(N)=O)cnc4[nH]ccc34)[C@H](F)C2)nc1 (racemic) [Example 82]
10 | 1.6 nM | C[C@@H]1CCN(c2ccc(C#N)cn2)C[C@@H]1n1[nH]c(=O)c2cnc3[nH]ccc3c21 (racemic) [Example 72]
11 | 1.1 nM | N#Cc1ccc(N2CC[C@@H](Nc3c(C(N)=O)cnc4[nH]ccc34)[C@@H](F)C2)nc1 (racemic) [Example 41]
12 | 0.52 nM | C[C@@H]1CCN(C(=O)CC#N)C[C@@H]1n1nc(N)c2cnc3[nH]ccc3c21 (racemic) [Example 21]
13 | 0.3 nM | N#Cc1ccc(N2CC[C@@H](Nc3c(C(N)=O)cnc4[nH]ccc34)[C@@H](F)C2)nc1 [Example 94]
14 | 1 nM | C[C@@H]1CN(c2ccc(C#N)nn2)CC[C@@H]1Nc1c(C(N)=O)cnc2[nH]ccc12 (racemic) [Example 66]
15 | 0.86 nM | C[C@@H]1CCN(C(=O)N2C[C@@H](F)C[C@H]2C#N)C[C@@H]1n1c(=O)[nH]c2cnc3[nH]ccc3c21 (mixture of isomers) [Example 2, (2R,4R)-4-fluoro-1-{[(3S,4S)-4-methyl-3-(2-oxo-3,6-dihydroimidazo[4,5-d]pyrrolo[2,3-b]pyridine-1(2H)-yl)-piperidine-1-yl]carbonyl}pyrrolidine-2-carbonitrile and (2R,4R)-4-fluoro-1-{[(3R,4R)-4-methyl-3-(2-oxo-3,6-dihydroimidazo[4,5-d]pyrrolo[2,3-b]pyridine-1(2H)-yl)-piperidine-1-yl]carbonyl}pyrrolidine-2-carbonitrile]
16 | 1.7 nM | C[C@@H]1CCN(C(=O)CC#N)C[C@@H]1n1[nH]c(=O)c2cnc3[nH]ccc3c21 (racemic) [Example 22]
17 | 0.76 nM | N#Cc1ccc(N2CC[C@@H](Nc3c(C(N)=O)cnc4[nH]ccc34)[C@@H](F)C2)nn1 (racemic) [Example 6, 4-{[(3S,4R)-1-(6-cyanopyridazine-3-yl)-3-fluoropiperidine-4-yl]amino}-1H-pyrrolo[2,3-b]pyridine-5-carboxamide and 4-{[(3R,4S)-1-(6-cyanopyridazine-3-yl)-3-fluoropiperidine-4-yl]amino}-1-1H-pyrrolo[2,3-b]pyridine-5-carboxamide]

Same assay, conditions: reference compounds produced according to the cited publications, compared in the JAK3 test

Row | IC50 | SMILES
18 | 31 nM | CS(=O)(=O)N1CCCC(Nc2c(Cl)cnc3[nH]ccc23)C1 (centres unmarked) [Reference compound B, reference compound]
19 | 230 nM | C[C@@H]1CCN(S(=O)(=O)c2cccnc2)C[C@@H]1N(C)c1ccnc2[nH]ccc12 [Reference compound A, reference compound]

Each molecule was assayed against HERG (Homo sapiens, UniProt Q12809) (assay: HERG assay). Conditions: low adverse effect.
Chain of HERG (Q12809 whole entry): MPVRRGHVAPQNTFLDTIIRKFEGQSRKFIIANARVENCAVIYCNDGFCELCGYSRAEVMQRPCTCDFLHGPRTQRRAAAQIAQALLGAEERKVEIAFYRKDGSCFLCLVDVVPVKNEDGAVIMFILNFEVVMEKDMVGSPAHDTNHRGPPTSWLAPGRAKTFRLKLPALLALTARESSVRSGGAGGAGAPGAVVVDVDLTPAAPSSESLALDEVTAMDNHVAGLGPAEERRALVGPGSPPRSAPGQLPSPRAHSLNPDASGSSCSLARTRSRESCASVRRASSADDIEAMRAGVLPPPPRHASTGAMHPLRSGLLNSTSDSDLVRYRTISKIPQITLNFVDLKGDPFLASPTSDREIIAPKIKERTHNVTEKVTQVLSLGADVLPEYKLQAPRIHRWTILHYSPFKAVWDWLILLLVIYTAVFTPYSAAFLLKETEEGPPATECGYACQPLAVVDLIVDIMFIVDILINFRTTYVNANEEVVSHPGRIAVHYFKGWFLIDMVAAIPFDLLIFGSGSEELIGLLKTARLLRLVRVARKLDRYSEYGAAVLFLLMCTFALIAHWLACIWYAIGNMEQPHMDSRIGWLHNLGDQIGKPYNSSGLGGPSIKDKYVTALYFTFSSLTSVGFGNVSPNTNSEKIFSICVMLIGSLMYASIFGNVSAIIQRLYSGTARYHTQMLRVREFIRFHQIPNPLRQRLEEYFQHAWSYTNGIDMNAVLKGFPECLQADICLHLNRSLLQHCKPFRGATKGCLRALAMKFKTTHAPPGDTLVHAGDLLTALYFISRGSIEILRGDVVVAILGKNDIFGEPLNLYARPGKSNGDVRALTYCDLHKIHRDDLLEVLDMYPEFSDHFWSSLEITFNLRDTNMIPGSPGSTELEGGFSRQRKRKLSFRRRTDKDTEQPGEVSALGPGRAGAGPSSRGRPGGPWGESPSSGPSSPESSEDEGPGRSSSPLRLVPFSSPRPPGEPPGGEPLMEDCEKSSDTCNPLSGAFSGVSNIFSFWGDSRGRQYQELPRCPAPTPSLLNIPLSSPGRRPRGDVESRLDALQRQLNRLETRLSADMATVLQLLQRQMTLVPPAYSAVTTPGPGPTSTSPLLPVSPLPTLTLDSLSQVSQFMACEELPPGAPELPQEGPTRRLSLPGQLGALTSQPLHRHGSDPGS

Row | SMILES | IC50
20 | N#Cc1ccc(N2CC[C@@H](Nc3c(C(N)=O)cnc4[nH]ccc34)[C@@H](F)C2)nc1 (racemic) [Example 41] | ≥ 100000 nM
